The conditions of data set [1]: from C=Cc1nn(C2CCCCO2)c2ccc(-c3cnn(C)c3OCCN(C)C(=O)c3c(I)c(Br)nn3C)cc12; cc_pd bond; Pd(OAc)2, NaHCO3, TBAC; DMF; 54.0 mM; 140.0 °C; 1.5 h.
Another data set concerns the target FLT3 (Homo sapiens (Human), UniProt P36888). The data set is described as follows: HotSpot radiometric kinase assay (Reaction Biology). It is filed as biochemical.
Data set [2] has as its target FLT3-ITD (Homo sapiens, UniProt P36888, ITD). The data set is described as above. It counts as biochemical.
Description: (§4) Briefly, specific kinase/substrate pairs along with required cofactors were prepared in reaction buffer; 20 mM Hepes pH 7.5, 10 mM MgCl2, 1 mM EGTA, 0.02% Brij35, 0.02 mg/ml BSA, 0.1 mM Na3VO4, 2 mM DTT, 1% DMSO. Compounds were delivered into the reaction, followed ˜20 minutes later by addition of a mixture of ATP (Sigma, St. Louis MO) and ^33P ATP (Perkin Elmer, Waltham MA) to a final concentration of 10 M. Reactions were carried out at room temperature for 120 min, followed by spotting of the reactions onto P81 ion exchange filter paper (Whatman Inc., Piscataway, NJ). Unbound phosphate was removed by extensive washing of filters in 0.75% phosphoric acid. […] IC50 values and curve fits were obtained using Prism (GraphPad Software).
The target in another data set is CLK1 (Homo sapiens (Human), UniProt P49759). Kind of data set: CLK kinase activity assay (ADP-Glo). It counts as biochemical. As for the experimental part: (§1) Kinase protein and substrate were pre-diluted in the HEPES assay buffer (100 mM HEPES, pH 7.5, 0.01% Triton X-100, 0.1% BSA, 5 mM MgCl2, 1 mM DTT, 10 μM Sodium Orthovanadate, 10 μM Beta-Glycerophosphate) dispensed into 384 well plate (5 μL per well). Control samples (0%-inhibition in the absence of inhibitor, DMSO only) and 100%-inhibition (in the absence of enzyme) were assembled in replicates of six and were used to calculate %-inhibition in the presence of compounds. Test compounds were added to the protein samples by acoustic dispensing (Labcyte Echo550). Concentration of DMSO was equalized to 1% in all samples. Reactions were initiated by addition of ATP by acoustic dispensing (Labcyte Echo550) and incubated according to assay specific incubation time. After incubation, 5 uL of Promega ADP-Glo reagent was added and incubated for 40 minutes. After 40 minutes, 10 uL of Promega kinase detection reagent was added. After 10 min of incubation with Kinase detection reagent, the luminescence was read on microplate reader (Biotek Synergy).
Sequence of CLK1 (P49759 whole entry): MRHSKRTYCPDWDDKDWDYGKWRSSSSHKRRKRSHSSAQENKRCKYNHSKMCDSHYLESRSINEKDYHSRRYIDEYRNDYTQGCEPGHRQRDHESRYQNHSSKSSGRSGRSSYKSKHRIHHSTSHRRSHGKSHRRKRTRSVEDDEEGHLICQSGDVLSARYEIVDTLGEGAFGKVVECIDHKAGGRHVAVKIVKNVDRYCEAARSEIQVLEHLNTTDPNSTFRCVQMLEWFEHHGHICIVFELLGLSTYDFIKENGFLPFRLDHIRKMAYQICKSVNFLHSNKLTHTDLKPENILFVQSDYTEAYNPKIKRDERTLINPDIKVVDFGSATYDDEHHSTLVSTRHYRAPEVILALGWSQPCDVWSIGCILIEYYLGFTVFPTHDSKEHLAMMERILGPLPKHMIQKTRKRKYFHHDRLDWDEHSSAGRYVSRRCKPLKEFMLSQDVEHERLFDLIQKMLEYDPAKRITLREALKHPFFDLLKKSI

The next data set deals with CLK2 (Homo sapiens (Human), UniProt P49760). Kind of data set: CLK kinase activity assay (ADP-Glo). It counts as biochemical. Here is the method: as §1
Sequence of CLK2 (P49760 whole entry): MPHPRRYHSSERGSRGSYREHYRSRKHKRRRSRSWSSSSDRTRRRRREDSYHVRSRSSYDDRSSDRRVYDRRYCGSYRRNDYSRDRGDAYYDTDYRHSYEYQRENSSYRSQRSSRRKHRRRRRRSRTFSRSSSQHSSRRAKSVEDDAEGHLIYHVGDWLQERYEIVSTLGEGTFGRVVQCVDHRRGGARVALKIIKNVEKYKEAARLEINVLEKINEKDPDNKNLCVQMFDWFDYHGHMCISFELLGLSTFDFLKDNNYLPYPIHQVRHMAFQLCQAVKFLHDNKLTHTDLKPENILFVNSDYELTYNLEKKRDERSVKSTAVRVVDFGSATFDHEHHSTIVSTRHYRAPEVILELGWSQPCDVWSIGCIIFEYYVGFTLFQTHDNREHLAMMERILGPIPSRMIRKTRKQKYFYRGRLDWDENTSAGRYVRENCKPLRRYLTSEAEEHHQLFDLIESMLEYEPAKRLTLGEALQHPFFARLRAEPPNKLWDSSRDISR
A general note: ADP-Glo first removes unused ATP, then detects ADP through luciferase.

Another data set addresses CLK3 (Homo sapiens (Human), UniProt P49761). Kind of data set: CLK kinase activity assay (ADP-Glo). It counts as biochemical. Here is the method:
as §1

The target in the next data set is CLK4 (Homo sapiens (Human), UniProt Q9HAZ1). Kind of data set: CLK kinase activity assay (ADP-Glo). It is filed as biochemical. As for the experimental part: as §1
Sequence of CLK4 (Q9HAZ1 whole entry): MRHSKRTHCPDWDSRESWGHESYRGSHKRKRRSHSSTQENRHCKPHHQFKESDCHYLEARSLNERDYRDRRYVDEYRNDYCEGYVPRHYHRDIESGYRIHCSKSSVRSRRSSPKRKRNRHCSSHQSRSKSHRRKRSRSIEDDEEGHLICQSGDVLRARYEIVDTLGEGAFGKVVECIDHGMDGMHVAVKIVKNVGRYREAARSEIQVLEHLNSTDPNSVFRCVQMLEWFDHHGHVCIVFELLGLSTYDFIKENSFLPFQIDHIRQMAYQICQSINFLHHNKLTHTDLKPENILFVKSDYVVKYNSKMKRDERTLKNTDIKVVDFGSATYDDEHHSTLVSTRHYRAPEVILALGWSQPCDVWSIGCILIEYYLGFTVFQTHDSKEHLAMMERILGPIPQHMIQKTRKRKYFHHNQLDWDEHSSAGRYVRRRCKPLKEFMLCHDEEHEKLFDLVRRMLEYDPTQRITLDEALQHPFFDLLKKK
The test system of the next data set is MV-4-11 cells. The data set is described as follows: MV-4-11 cell proliferation assay (CellTiter-Glo 2.0). It is filed as cell-based. The following applies: MV-4-11, 384-well, 11-dose dilution series, read-out: IC50, inhibition of MV-4-11 cell proliferation. Here is the method: MV-4-11 cell line was purchased from ATCC and maintained in RPMI medium supplemented with 10% fetal bovine serum and 100 U/mL of penicillin/streptomycin. One thousand MV-4-11 cells/50 μl per well were seeded in white 384-well plate, followed by treatment with indicated compounds in a 11-dose dilution series. Cell proliferation was measured using CellTiter-Glo 2.0 luciferase-based ATP detection assay (Promega, Madison, WI) following the manufacturer's protocol. Plates were then read on a TECAN Sparks multimode microplate reader. Data was analyzed using GraphPad Prism 9 (GraphPad Software, San Diego, CA) to obtain IC50 values.

In data set [3] the test system is Phospho-S6 Ribosomal Protein (S235/236). The data set is described as follows: Inhibition of kinase phosphorylation by Western Blot in MV-4-11. The settings on record: Homo sapiens, MV4-11; MV-4-11 cells, 4 hour-incubation; read-out: pS6 MV-4-11 IC50. It is filed as cell-based. As for the experimental part:
(§2) Inhibition of kinase phosphorylation assay was performed by Western Blot using MV-4-11 and MOLM13 cell lines. Cells were plated in 24 well plates at 1 million cells per well and then treated with compounds at different concentrations, starting at 100 nM, 1:4 titration with DMSO as control. After 4 hour-incubation, cells were washed once with ice-cold PBS, and lysed in RIPA lysis buffer with protease and phosphatase inhibitors. The cell lysates were then sonicated and spun down, and 40 μg of proteins were separated by sodium dodecyl sulfate electrophoresis on a 4 to 12% Bis-Tris polyacrylamide gel and transferred onto nitrocellulose membranes using Bio-Rad Trans-Blot Turbo Transfer System (Bio-Rad). Blocking was performed using 3% BSA or 5% Non-fat dry milk (Fisher Scientific) in TBST (Tris-buffered saline containing 0.05% of Tween 20) (Bio-Rad Laboratories, Inc.). The membranes were incubated overnight with anti-phospho-FLT3 (Y589/Y591) (CST #60413), anti-phospho-STAT5 (Y694) (CST #4322), anti-Phospho-p44/42 MAPK (Erk1/2) (T202/Y204) (CST #9101), anti-Phospho-S6 Ribosomal Protein (S235/236) (CST #4858) and anti-β-Actin (CST #8457) each diluted 1000 times in 3% BSA in TBST. Membranes were washed with TBST and then incubated at room temperature for 1 hour with HRP-labeled anti-rabbit IgG polyclonal antibody (CST #7074) diluted 1000 times in 3% BSA. After TBST washing, blots were developed with a chemiluminescence system (SuperSignal West Femto Maximum Sensitivity Substrate, Pierce #34095). Luminescence was detected by LI-COR Odyssey M imaging system and luminescence intensity were quantified using Empiria Studio 2.2 software. Data was analyzed using GraphPad Prism 9 (GraphPad Software, San Diego, CA) to obtain IC50 values.

The subject of data set [4] is Phospho-p44/42 MAPK (Erk1/2) (T202/Y204). Described as above. It is filed as cell-based. The following applies: Homo sapiens, MV4-11; MV-4-11 cells, 4 hour-incubation; read-out: pERK MV-4-11 IC50. As for the experimental part:
as §2

Data set [5] concerns phospho-STAT5 (Y694). Described as above. It is filed as cell-based. The following applies: Homo sapiens, MV4-11; MV-4-11 cells, 4 hour-incubation; read-out: pSTAT5 MV-4-11 IC50. Here is the method:
as §2

Data set [6] deals with Phospho-S6 Ribosomal Protein (S235/236). Kind of data set: Inhibition of kinase phosphorylation by Western Blot in MOLM-13. It is filed as cell-based. The following applies: Homo sapiens; MOLM-13 cells, 4 hour-incubation; read-out: pS6 MOLM-13 IC50. Here is the method: as §2
On the technique in general: A western blot detects proteins with antibodies after separation by electrophoresis.

In data set [7] the test system is Phospho-p44/42 MAPK (Erk1/2) (T202/Y204). Described as above. It is filed as cell-based. The settings on record: Homo sapiens; MOLM-13 cells, 4 hour-incubation; read-out: pERK MOLM-13 IC50. As for the experimental part:
as §2

The subject of data set [8] is phospho-STAT5 (Y694). The description is as above. It counts as cell-based. The settings on record: Homo sapiens; MOLM-13 cells, 4 hour-incubation; read-out: pSTAT5 MOLM-13 IC50. Here is the method: as §2
For data set [9], the target named is FLT3-ITD (Homo sapiens, UniProt P36888). Kind of data set: HotSpot radiometric kinase assay (Reaction Biology). It is filed as biochemical.
Sequence of FLT3-ITD (Homo sapiens, UniProt P36888) (P36888 whole entry, looked up, change not shown): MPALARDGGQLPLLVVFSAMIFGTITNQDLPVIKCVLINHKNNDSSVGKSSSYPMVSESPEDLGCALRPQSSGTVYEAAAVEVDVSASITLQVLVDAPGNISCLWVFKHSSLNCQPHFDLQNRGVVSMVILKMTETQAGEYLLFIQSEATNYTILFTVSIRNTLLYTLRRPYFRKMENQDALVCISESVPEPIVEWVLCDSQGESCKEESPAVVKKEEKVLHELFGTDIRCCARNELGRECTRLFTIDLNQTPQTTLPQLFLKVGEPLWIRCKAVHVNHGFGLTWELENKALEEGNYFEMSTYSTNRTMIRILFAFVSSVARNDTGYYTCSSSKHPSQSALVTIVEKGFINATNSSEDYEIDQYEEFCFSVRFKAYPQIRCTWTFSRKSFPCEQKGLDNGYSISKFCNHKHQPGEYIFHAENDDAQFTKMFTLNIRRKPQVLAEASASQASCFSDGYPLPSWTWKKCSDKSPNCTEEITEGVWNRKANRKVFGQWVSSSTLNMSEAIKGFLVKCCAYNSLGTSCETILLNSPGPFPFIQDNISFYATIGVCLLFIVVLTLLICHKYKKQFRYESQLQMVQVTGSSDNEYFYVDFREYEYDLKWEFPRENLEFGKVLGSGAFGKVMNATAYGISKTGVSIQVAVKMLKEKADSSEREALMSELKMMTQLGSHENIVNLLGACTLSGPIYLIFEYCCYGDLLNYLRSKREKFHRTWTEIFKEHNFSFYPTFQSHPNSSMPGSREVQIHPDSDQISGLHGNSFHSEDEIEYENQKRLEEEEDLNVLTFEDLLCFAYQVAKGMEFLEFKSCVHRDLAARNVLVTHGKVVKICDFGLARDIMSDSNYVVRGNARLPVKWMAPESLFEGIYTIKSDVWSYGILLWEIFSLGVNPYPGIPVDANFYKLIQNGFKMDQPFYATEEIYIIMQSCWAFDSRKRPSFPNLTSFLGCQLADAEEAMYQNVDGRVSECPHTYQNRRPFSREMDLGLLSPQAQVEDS
Description: as §4
Another data set deals with PIM1 (Homo sapiens (Human), UniProt P11309). The data set is described as above. It is filed as biochemical. Here is the method:
(§3) Briefly, specific kinase/substrate pairs along with required cofactors were prepared in reaction buffer; 20 mM Hepes pH 7.5, 10 mM MgCl2, 1 mM EGTA, 0.02% Brij35, 0.02 mg/ml BSA, 0.1 mM Na3VO4, 2 mM DTT, 1% DMSO. Compounds were delivered into the reaction, followed ˜20 minutes later by addition of a mixture of ATP (Sigma, St. Louis MO) and ^33P ATP (Perkin Elmer, Waltham MA) to a final concentration of […]. Reactions were carried out at room temperature for 120 min, followed by spotting of the reactions onto P81 ion exchange filter paper (Whatman Inc., Piscataway, NJ). Unbound phosphate was removed by extensive washing of filters in 0.75% phosphoric acid. […] IC50 values and curve fits were obtained using Prism (GraphPad Software).

For the next data set, the target named is PIM2 (Homo sapiens (Human), UniProt Q9P1W9). The description is as above. It is filed as biochemical. As for the experimental part: as §3
Sequence of PIM2 (Q9P1W9 whole entry): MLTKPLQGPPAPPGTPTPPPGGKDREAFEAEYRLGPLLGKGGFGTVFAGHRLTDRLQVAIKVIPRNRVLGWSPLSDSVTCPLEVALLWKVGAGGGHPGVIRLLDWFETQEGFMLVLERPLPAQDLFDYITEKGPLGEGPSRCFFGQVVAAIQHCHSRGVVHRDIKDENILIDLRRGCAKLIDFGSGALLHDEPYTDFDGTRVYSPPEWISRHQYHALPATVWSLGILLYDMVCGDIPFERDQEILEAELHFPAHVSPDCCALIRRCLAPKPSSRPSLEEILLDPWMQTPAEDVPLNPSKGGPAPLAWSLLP
The target of the next data set is PIM3 (Homo sapiens (Human), UniProt Q86V86). The description is as above. It is filed as biochemical. As for the experimental part:
as §3

Structures are written as SMILES. Where two headings read alike, the source gives them in different places. Some results are limits rather than exact numbers.

Sequence of PIM1 (P11309 whole entry): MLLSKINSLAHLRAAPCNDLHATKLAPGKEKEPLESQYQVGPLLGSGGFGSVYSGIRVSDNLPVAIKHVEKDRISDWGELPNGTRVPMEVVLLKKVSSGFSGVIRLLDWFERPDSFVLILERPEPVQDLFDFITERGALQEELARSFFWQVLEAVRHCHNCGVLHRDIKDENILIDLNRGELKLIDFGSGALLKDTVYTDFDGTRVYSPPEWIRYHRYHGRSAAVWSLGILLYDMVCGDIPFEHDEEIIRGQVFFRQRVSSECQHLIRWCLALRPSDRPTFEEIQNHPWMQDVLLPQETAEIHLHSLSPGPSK
Sequence of FLT3 (P36888 27-993): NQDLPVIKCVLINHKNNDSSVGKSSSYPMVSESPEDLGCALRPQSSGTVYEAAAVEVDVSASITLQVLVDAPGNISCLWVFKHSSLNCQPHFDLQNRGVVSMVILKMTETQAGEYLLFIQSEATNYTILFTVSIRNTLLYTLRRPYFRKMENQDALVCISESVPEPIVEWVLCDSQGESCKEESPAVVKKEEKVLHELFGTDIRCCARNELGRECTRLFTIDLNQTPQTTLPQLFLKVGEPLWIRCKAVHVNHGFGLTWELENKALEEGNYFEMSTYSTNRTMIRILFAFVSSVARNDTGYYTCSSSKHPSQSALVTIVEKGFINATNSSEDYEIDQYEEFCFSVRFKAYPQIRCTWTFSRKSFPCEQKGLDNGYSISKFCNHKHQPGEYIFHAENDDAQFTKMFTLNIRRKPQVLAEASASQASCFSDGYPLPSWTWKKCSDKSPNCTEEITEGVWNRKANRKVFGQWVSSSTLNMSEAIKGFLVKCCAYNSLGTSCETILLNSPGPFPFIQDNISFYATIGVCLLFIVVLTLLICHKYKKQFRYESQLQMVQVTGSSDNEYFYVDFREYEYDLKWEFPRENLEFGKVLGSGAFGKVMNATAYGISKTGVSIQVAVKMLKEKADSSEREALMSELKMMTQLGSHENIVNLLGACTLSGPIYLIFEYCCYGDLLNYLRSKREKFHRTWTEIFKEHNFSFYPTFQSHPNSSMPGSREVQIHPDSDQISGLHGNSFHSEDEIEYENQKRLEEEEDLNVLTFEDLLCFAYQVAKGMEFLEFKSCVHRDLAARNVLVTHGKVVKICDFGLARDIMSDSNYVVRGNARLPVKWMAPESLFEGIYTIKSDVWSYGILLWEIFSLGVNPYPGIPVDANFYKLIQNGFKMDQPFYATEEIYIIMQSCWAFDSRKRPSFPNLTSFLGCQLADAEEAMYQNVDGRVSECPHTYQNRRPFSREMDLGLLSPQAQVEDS
Sequence of FLT3-ITD (Homo sapiens, UniProt P36888, ITD) (P36888 whole entry, looked up, change not shown): as the sequence (P36888 whole entry, looked up, change not shown) above
Sequence of CLK3 (P49761 whole entry): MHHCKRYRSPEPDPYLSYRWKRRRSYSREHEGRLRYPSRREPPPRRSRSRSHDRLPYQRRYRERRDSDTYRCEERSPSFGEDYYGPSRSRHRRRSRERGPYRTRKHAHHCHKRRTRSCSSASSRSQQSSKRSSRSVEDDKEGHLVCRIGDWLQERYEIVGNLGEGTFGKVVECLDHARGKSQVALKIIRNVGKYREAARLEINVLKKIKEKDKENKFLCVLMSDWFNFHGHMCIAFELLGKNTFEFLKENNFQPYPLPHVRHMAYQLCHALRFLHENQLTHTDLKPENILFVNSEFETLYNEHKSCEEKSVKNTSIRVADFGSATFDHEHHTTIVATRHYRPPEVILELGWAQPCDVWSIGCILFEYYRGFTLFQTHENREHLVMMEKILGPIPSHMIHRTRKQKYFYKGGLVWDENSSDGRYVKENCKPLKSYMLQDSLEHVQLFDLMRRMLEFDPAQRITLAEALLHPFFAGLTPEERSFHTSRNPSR

In turn, `CN1CCOc2c(cnn2C)-c2ccc3c(c2)c(nn3C2CCCCO2)/C=C/c2c(Br)nn(C)c2C1=O` (stereo not drawn) had a ring closure, yield of all isomers in data set [1] of 94.8%.

Take `CN1CCOc2c(cnn2C)-c2ccc3[nH]nc(c3c2)/C=C/c2c(C#N)nn(C)c2C1=O` [Ex. 24, (17E)-8,12,14-trimethyl-13-oxo-2,10,11,12,13,14-hexahydro-8H-3,5-ethenotripyrazolo[3,4-f:3′,4′-j:4″,3″-n][1,4]oxazacyclopentadecine-16-carbonitrile]: the IC50 worked out at 0.23 nM at FLT3; 0.475 nM against FLT3-ITD [2]; 0.415 nM at CLK1; 0.67 nM on CLK2; 92.9 nM at CLK3; 0.593 nM on CLK4. For the same compound, the IC50 with MV-4-11 cells (Homo sapiens, MV4-11) worked out at 141 nM.

Turning to `CCc1nc(C(N)=O)c(Nc2ccc(N3CCC(N4CCN(C)CC4)CC3)c(OC)c2)nc1NC1CCOCC1` [Gilteritinib, reference compound], the IC50 in data set [3] came to 0.92 nM; in data set [4] it was 1.63 nM; with phospho-STAT5 (Y694) [5], 1.75 nM; in [6] it was 7.91 nM; in data set [7], 1.31 nM; in the data set with phospho-STAT5 (Y694) [8], 2.23 nM.

Turning to `CCc1c2c(nn1C)C(=O)N(C)CCOc1c(cnn1C)-c1ccc3[nH]nc(c3c1)/C=C/2` [compound 7, (17E)-16-ethyl-8,12,15-trimethyl-2,11,12,15-tetrahydro-8H-3,5-ethenotripyrazolo[3,4-f:3′,4′-j:4″,3″-n][1,4]oxazacyclopentadecin-13(10H)-one], the IC50 was found to be 0.247 nM against FLT3; 0.537 nM on FLT3-ITD [9]; 6.72 nM against PIM1; 14 nM against PIM2; 0.221 nM against PIM3; 73.1 nM in the data set on MV-4-11 cells.

`Cc1nn(C)c2c1/C=C/c1n[nH]c3ccc(cc13)-c1cnn(C)c1OCCN(C)C2=O` [compound 8, (17E)-8,12,14,16-tetramethyl-2,11,12,14-tetrahydro-8H-3,5-ethenotripyrazolo[3,4-f:3′,4′-j:4″,3″-n][1,4]oxazacyclopentadecin-13(10H)-one]: the IC50 against PIM1 was 1.64 nM; against PIM2, 8.17 nM; against PIM3, 0.0732 nM; with MV-4-11 cells (Homo sapiens, MV4-11) it was below 0.2 nM.

For `Cc1c2c(nn1C)C(=O)N(C)CCOc1c(cnn1C)-c1ccc3[nH]nc(c3c1)/C=C/2` [compound 9, (17E)-8,12,15,16-tetramethyl-2,11,12,15-tetrahydro-8H-3,5-ethenotripyrazolo[3,4-f:3′,4′-j:4″,3″-n][1,4]oxazacyclopentadecin-13(10H)-one], the IC50 is 0.347 nM against FLT3; 0.592 nM on FLT3-ITD [2]; 12.7 nM against PIM1; 145 nM on PIM2; 3.65 nM against PIM3; around 1 nM in the data set on MV-4-11 cells (Homo sapiens, MV4-11).

Source of the values: patent publication US20260070924A1, “INDAZOLE MACROCYCLES AND THEIR USE” (BLOSSOMHILL THERAPEUTICS, INC., priority 2022, published 2026).
